Assay results: paper PMC12702776 (Cancer Gene Therapy, 2025)

Tests used:
[1] = target: T1, DOCK2 (Homo sapiens, UniProt Q92608); experiment: Active GTPase pull-down assay in IGR1 melanoma cells treated with DOCK2 inhibitor; assay type: cell-based; conditions: serum-stimulated IGR1 cells, 25 µM and 100 µM
T1 construct: endogenous in cells; host or cells: IGR1 human melanoma cells
Experimental: HEK-293T and IGR1 human melanoma cells were cultured under serum-stimulated and serum-starved conditions in DMEM supplemented with 10% FBS and 1% penicillin/streptomycin. The HEK-293T cells were then transfected with RAC1 constructs containing N-terminal 10×His–triple FLAG tags using TurboFect™ (Thermo Fisher Scientific), according to the manufacturer’s protocol. The HEK-293T cells were cultured and harvested under serum-stimulated or serum-starved conditions without additional treatment. IGR1 cells, in contrast, were treated with the DOCK2 inhibitor CPYPP (MedChemExpress) at 25 µM and 100 µM concentrations, with 0.5% DMSO as a vehicle control. After treatment, cells were harvested and lysed, and protein concentrations were determined using the Bradford assay. Detailed protocols, including buffer compositions, are provided in the Supplementary Information.
Experiments were conducted under both serum-stimulated and serum-starved conditions, as described previously. […] After incubation, the beads were washed and analyzed by SDS-PAGE followed by immunoblotting. […]
Cell culture, transfection, and treatment. […] The resulting supernatants were collected for downstream applications, and protein concentrations were determined using the Bradford assay.
Active GTPase pull-down assay. […] Samples were analyzed by SDS-PAGE and immunoblotting […]

[2] = test system: DHR2 domain of DOCK2; set-up: method as in PMID 22520755; conditions: cited from earlier work
[3] = test system: IGR1 cells; conditions: cited from earlier work
[4] = target: T2, RAC1^F28L (Homo sapiens, UniProt P63000, F28L); experiment: Nucleotide-binding assay (stopped-flow fluorimetry); conditions: faster than RAC1 WT
T2 construct: GST (N); made in house; host or cells: Escherichia coli
Experimental: (§1) The nucleotide-binding properties of RAC1 GTPases were assessed by stopped-flow fluorimetry, as described. Nucleotide association and dissociation rates were measured using fluorescent nucleotides (mdGDP and mGppNHp) and varying RAC1 concentrations. Association (kon) and dissociation (koff) rate constants were determined, and equilibrium dissociation constants (Kd) were calculated as described in Box 2. Detailed procedures are provided in the Supplementary Materials.
(§2) Nucleotide-binding assay. The nucleotide-binding properties of the RAC1 GTPases were assessed using a stopped-flow fluorimetry approach, as described (10). ucleotide association was measured with 0.1 µM fluorescently labeled nucleotides, such as mdGDP and mGppNHp, and varying concentrations of nucleotide-free RAC1 proteins (0.25–5 μM). Measurements were conducted in a buffer containing 30 mM Tris-HCl, pH 7.5, 10 mM KH2PO4/K2HPO4, 5 mM MgCl2, and 3 mM DTT, at 25 °C. The association rate constant (kon) was determined by plotting the observed rate constants (kobs) against the concentration of nucleotide-free RAC1 and analyzing the slope via linear regression using Origin software. The dissociation rate constant (koff) of the fluorescent nucleotide from RAC1 proteins (0.1 µM) was measured by adding a 200-fold excess of the non-fluorescent nucleotide (20 µM). The affinity of RAC1 proteins for GDP and GppNHp was calculated by dividing koff by kon, yielding the equilibrium dissociation constants (Kd), as defined in Box 2 of the main text.

[5] = target: T3, RAC1^P29S (Homo sapiens, UniProt P63000, P29S); experiment: as above; conditions: RAC1 P29S compared to RAC1 WT
T3 construct: GST (N); made in house; host or cells: Escherichia coli
Experimental: as §1, §2

[6] = target: T4, RAC1^T17N (Homo sapiens, UniProt P63000, T17N); experiment: as above
T4 construct: GST (N); made in house; host or cells: Escherichia coli
Experimental: as §1, §2

[7] = target: T5, RAC1^WT (Homo sapiens, UniProt P63000); experiment: as above
T5 construct: GST (N); made in house; host or cells: Escherichia coli
Experimental: as §1, §2

T1 sequence (Q92608 whole entry): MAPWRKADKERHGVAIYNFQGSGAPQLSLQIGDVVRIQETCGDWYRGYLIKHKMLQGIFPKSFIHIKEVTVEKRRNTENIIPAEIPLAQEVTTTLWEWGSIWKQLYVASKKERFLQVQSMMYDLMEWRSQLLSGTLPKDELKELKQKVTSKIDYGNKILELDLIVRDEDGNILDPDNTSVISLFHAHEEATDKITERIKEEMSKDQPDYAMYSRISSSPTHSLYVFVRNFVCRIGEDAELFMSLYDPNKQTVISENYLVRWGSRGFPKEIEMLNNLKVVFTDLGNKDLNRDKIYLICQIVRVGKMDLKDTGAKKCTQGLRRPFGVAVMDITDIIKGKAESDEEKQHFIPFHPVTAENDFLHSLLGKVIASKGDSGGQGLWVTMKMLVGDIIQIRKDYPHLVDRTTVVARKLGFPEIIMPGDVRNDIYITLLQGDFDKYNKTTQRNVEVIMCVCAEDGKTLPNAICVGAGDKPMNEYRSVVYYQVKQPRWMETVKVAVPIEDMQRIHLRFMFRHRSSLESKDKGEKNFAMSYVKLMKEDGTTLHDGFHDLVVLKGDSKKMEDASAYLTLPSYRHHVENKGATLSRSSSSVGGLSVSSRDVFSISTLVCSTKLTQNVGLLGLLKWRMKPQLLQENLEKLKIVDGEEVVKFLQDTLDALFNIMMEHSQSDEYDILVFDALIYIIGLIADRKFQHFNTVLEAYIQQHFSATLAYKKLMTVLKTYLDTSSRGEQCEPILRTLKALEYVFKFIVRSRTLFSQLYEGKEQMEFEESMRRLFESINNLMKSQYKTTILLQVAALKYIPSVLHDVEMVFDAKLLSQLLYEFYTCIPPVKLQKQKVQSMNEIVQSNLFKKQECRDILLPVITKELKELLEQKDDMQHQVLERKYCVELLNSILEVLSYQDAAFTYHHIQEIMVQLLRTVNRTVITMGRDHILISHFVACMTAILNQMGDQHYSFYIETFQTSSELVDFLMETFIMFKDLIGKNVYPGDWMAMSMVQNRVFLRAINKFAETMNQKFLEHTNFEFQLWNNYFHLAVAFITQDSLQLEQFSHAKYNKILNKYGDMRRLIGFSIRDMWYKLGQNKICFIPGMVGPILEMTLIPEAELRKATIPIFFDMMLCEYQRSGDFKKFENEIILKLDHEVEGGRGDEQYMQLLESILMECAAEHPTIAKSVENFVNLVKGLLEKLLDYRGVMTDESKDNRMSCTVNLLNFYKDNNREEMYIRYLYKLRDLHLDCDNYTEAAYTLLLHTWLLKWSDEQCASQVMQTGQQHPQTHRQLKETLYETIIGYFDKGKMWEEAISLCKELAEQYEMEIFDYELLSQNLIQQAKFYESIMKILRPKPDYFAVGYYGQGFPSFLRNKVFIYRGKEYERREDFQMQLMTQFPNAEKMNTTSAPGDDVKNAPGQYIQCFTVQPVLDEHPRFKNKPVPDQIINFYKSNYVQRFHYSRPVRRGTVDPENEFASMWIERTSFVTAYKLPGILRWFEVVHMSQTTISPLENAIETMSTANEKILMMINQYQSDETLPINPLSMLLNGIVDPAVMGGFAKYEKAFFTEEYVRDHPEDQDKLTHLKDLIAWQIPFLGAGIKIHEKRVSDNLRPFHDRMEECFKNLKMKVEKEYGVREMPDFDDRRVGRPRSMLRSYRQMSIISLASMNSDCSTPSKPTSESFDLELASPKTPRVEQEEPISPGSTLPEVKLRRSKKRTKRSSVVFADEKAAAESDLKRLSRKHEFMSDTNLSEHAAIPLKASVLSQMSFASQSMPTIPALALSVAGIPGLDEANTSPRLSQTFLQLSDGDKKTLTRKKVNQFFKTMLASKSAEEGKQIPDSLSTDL

Row | Compound | sensitivity of IGR1 cells (RAC1^P29S, BRAF^V600K) [3] | Kd, lower affinity P29S vs WT [5] | kon, reduction P29S vs WT [5] | Kd [7] | further results
1 | O=C1NN(c2ccccc2)C(=O)/C1=C/C=C/c1ccccc1Cl [CPYPP] | – | – | – | – | effect on RAC1^P29S activation [1]: reduced RAC1^P29S activation in a dose-dependent manner; effect on DOCK2 catalytic activity [2]: reversibly blocking its catalytic activity
2 | CC(C)(C)c1nc(-c2cccc(NS(=O)(=O)c3c(F)cccc3F)c2F)c(-c2ccnc(N)n2)s1 [dabrafenib] | reduced sensitivity | – | – | – | –
3 | CNc1ccccc1C(=O)O[C@H]1C[C@H](n2cnc3c(=O)[nH]c(N)nc32)O[C@@H]1COP(=O)(O)OP(=O)(O)O [mdGDP, methylanthraniloyl-2'-deoxy-guanosine 5′-diphosphate] | – | 147 fold | 14 fold | 0.3 nM | intrinsic nucleotide dissociation rate, F28L vs WT [4]: 20 fold; koff, increase P29S vs WT [5]: 10 fold; decrease in binding affinity, T17N vs WT ([6]; RAC1 T17N compared to RAC1 WT): 1346 fold; dissociation rate, T17N vs WT ([6]; higher than RAC1 WT): 410 fold
4 | CCCS(=O)(=O)Nc1ccc(F)c(C(=O)c2c[nH]c3ncc(-c4ccc(Cl)cc4)cc23)c1F [vemurafenib] | reduced sensitivity | – | – | – | –
5 | methylanthraniloyl guanosine 5'-[beta,gamma-imido]triphosphate [mGppNHp] | – | 289 fold | 27 fold | 0.6 nM | –
